From patent publication US10835537B2, “Combination therapies for treatment of cancer” (Sumitomo Dainippon Pharma Oncology, Inc., priority 2015, dated 2020)

Tests used:
MV 4-11 cells = experiment: Cell viability, Cell titer-glo assay; assay type: cell-based; conditions: for EC50: Homo sapiens, MV4-11, MV 4-11 cells, wash
Experimental: MV 4-11 cells were dosed first with alvocidib (80 nM) or DMSO for 24 hours followed by a wash step. Following the wash step, the cells were dosed with azacitidine (30 μM to 0.001 μM) for an additional 72 hours, Measurement of cell viability was taken at 96 hours from the initial dose (72 hours after the wash step) and normalized to data collected for cells dosed with alvocidib only. Cell viability was then assessed in a Cell titer-glo assay, according to manufacturer protocol. Cell viability was then plotted against concentration on a logarithmic scale (FIG. 2).
FIGS. 5A and 5B present data from combination treatment of Alvocidib and decitabine in MV4-11 cells. MV4-11 cells were first treated for 96 hours with alvocidib+decitabine according to the general procedures of Example 2 at the concentrations indicated in FIG. 5A. […] Here, a change of nearly 10-fold in the IC50 (μM) of decitabine with the addition of alvocidib (100 nM) was observed when alvocidib was administered prior to decitabine.

MCL-1 = MCL-1 expression by western blotting in MV4-11 cells; assay type: cell-based
Experimental: An AML cell line, MV-4-11, expresses MCL-1. MCL-1 is a key anti-apoptotic protein in MV-4-11 cells. Alvocidib, a CDK9 inhibitor, lowers the expression of MCL-1, which is already well documented in the literature. Alvocidib down-regulates MCL-1 in a dose dependent manner (FIG. 1A). The dose dependence is observed by monitoring the relative expression of MCL-1 compared to β-actin when cells are dosed with alvocidib at concentrations of 0-8 μM. MV4-11 cells were treated with Alvocidib for 16 hrs in vitro, Following treatment, cells were harvested and prepared using standard western blotting technique for immuno-detection of MCL-1 and β-actin expression.
In addition, alvocidib also down-regulates MCL-1 in a time-dependent manner (FIG. 1B). The time dependence is observed by monitoring the relative expression of MCL-1 compared top-actin over time. The relative expression of MCL-1 was measured at 0.5-48 hour time points after dosing with 80 nM of alvocidib.
MV4-11 cells were treated with 80 nM Alvocidib in vitro for the times indicated. Following treatment, cells were harvested and prepared using standard western blotting technique for immunodetection of MCL-1 and β-actin expression.

## Nc1ncn([C@@H]2O[C@H](CO)[C@@H](O)[C@H]2O)c(=O)n1 [azacitidine]
MV 4-11 cells; DMSO 24 hours, then azacitidine only 72 hours
  EC50: 1.78 µM
MV 4-11 cells; alvocidib 80 nM 24 hours, then azacitidine 72 hours, normalized to alvocidib only
  EC50: 0.641 µM

## Nc1ncn([C@H]2C[C@H](O)[C@@H](CO)O2)c(=O)n1 [decitabine]
MV 4-11 cells; MV4-11 cells, alvocidib 100 nM 24 hours pre-treatment, then decitabine 72 hours
  Change in IC50 of decitabine with the addition of alvocidib: ~10 fold

## CN1CC[C@H](c2c(O)cc(O)c3c(=O)cc(-c4ccccc4Cl)oc23)[C@H](O)C1 [Alvocidib]
MCL-1; 80 nM, 1 hour post-treatment
  MCL-1 expression compared to β-actin: reduced MCL-1 expression
MCL-1; 80 nM, 16 hrs
  MCL-1 expression compared to β-actin: nearly completely blocked
MCL-1; 80 nM, up to 48 hours following treatment
  MCL-1 expression compared to β-actin: inhibition of expression was maintained
MCL-1; 0.1 μM, 16 hrs
  MCL-1 expression compared to β-actin: reduced MCL-1 expression
MCL-1; 1 μM, 16 hrs
  MCL-1 expression compared to β-actin: completely blocked expression
